Literature values in US20110142766A1, “Effervescent Multi-Vitamin Formulation and Methods of Use Thereof” (priority 2009, published 2011).

What was measured:
[1] = system: vision loss; details: group treated with zinc compared with a group treated with a placebo
[2] = system: age-related macular degeneration

Structure (SMILES): [Zn] [zinc]
- reduction in vision loss [1]: statistically significant reduction in vision loss
- reduction of risk of (central) vision loss ([2]; people at high risk for developing advanced AMD): about 11%
- reduction of risk of developing advanced stages of AMD ([2]; people at high risk for developing advanced AMD (intermediate AMD, or advanced AMD in one eye only)): about 21%
